Results reported in BindingDB's records for doi:10.7270/Q2TB1590 (Nmmlsc, 2007).

Each compound was assayed against T1, fMet-Leu-Phe receptor (Homo sapiens, UniProt P21462) (assay: human FPR1 ligand displacement potency – cell-based, flow cytometry, Ki from IC50, dose response (AID 724)).
T1 sequence (P21462 whole entry): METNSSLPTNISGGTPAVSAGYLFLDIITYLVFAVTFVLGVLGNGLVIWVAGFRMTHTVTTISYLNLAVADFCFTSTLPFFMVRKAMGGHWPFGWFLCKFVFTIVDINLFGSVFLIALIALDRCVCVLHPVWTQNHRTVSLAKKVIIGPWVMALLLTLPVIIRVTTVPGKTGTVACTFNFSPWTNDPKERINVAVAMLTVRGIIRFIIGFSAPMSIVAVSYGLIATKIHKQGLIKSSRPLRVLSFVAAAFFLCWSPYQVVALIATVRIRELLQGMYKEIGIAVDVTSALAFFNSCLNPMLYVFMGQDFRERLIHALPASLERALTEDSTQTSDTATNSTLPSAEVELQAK

Row | Compound | IC50
1 | COc1ccc(C2C(C(=O)c3cccs3)C(=O)C(=O)N2CCN2CCOCC2)c(OC)c1 (stereo not given) [2-(2,4-dimethoxyphenyl)-1-(2-morpholin-4-ylethyl)-4-oxidanyl-3-thiophen-2-ylcarbonyl-2H-pyrrol-5-one] | 4.4 µM
2 | COCCCN1C(=O)C(=O)C(C(=O)c2ccccc2)C1c1ccc(O)c(OC)c1 (stereo not given) [(4E)-5-(3-methoxy-4-oxidanyl-phenyl)-1-(3-methoxypropyl)-4-[oxidanyl(phenyl)methylidene]pyrrolidine-2,3-dione] | 50.5 µM
3 | COc1ccc(OC)c(C2C(C(=O)c3ccccc3)C(=O)C(=O)N2c2cccnc2)c1 (stereo not given) [(4E)-5-(2,5-dimethoxyphenyl)-4-[hydroxy(phenyl)methylene]-1-(3-pyridyl)pyrrolidine-2,3-quinone] | 9.2 µM
4 | COc1ccc(C2C(C(=O)c3ccccc3)C(=O)C(=O)N2CCCn2ccnc2)c(OC)c1 (stereo not given) [(4E)-5-(2,4-dimethoxyphenyl)-1-(3-imidazol-1-ylpropyl)-4-[oxidanyl(phenyl)methylidene]pyrrolidine-2,3-dione] | 5.2 µM
5 | COc1ccc(C2C(C(=O)c3ccccc3)C(=O)C(=O)N2c2cccc(Cl)c2)c(OC)c1 (stereo not given) [(4E)-1-(3-chlorophenyl)-5-(2,4-dimethoxyphenyl)-4-[hydroxy(phenyl)methylene]pyrrolidine-2,3-quinone] | 47.5 µM
6 | COc1ccc(C2C(C(=O)c3ccc(C)cc3)C(=O)C(=O)N2Cc2cccnc2)c(OC)c1 (stereo not given) [(4E)-5-(2,4-dimethoxyphenyl)-4-[(4-methylphenyl)-oxidanyl-methylidene]-1-(pyridin-3-ylmethyl)pyrrolidine-2,3-dione] | 59.7 µM
7 | COc1ccc(C2C(C(=O)c3ccco3)C(=O)C(=O)N2CCN2CCOCC2)c(OC)c1 (stereo not given) [5-(2,4-dimethoxyphenyl)-4-(furan-2-carbonyl)-3-hydroxy-1-(2-morpholinoethyl)-1H-pyrrol-2(5H)-one] | 9.8 µM
8 | COCCCN1C(=O)C(=O)C(C(=O)c2ccccc2)C1c1ccc(C(C)C)cc1 (stereo not given) [(4E)-1-(3-methoxypropyl)-4-[oxidanyl(phenyl)methylidene]-5-(4-propan-2-ylphenyl)pyrrolidine-2,3-dione] | 31.1 µM
9 | COc1ccc(C2C(C(=O)c3cccs3)C(=O)C(=O)N2CCCn2ccnc2)cc1 (stereo not given) [1-(3-imidazol-1-ylpropyl)-2-(4-methoxyphenyl)-4-oxidanyl-3-thiophen-2-ylcarbonyl-2H-pyrrol-5-one] | 7.1 µM
10 | CC(=O)C1C(=O)C(=O)N(CCc2c(C)[nH]c3ccccc23)C1c1cccc(F)c1 (stereo not given) | 17.2 µM
11 | O=C1C(=O)N(CCc2ccccc2)C(c2ccc(Cl)cc2)C1C(=O)c1cccs1 (stereo not given) [2-(4-chlorophenyl)-4-hydroxy-1-(2-phenylethyl)-3-(thiophene-2-carbonyl)-2H-pyrrol-5-one] | 10.6 µM
12 | CCCCCCN1C(=O)C(=O)C(C(=O)c2ccccc2)C1c1ccc(O)c(OC)c1 (stereo not given) [(4Z)-1-hexyl-5-(3-methoxy-4-oxidanyl-phenyl)-4-[oxidanyl(phenyl)methylidene]pyrrolidine-2,3-dione] | 7.2 µM
13 | COc1ccc(OC)c(C2C(C(=O)c3ccccc3)C(=O)C(=O)N2c2ccc(C)c(Cl)c2)c1 (stereo not given) [(4E)-1-(3-chloranyl-4-methyl-phenyl)-5-(2,5-dimethoxyphenyl)-4-[oxidanyl(phenyl)methylidene]pyrrolidine-2,3-dione] | 25.7 µM
14 | COCCN1C(=O)C(=O)C(C(=O)c2ccccc2)C1c1cc(OC)ccc1OC (stereo not given) [(4E)-5-(2,5-dimethoxyphenyl)-1-(2-methoxyethyl)-4-[oxidanyl(phenyl)methylidene]pyrrolidine-2,3-dione] | 2.8 µM
15 | CC(C)c1ccc(C2C(C(=O)c3ccccc3)C(=O)C(=O)N2Cc2cccnc2)cc1 (stereo not given) [(4E)-4-[hydroxy(phenyl)methylene]-5-p-cumenyl-1-(3-pyridylmethyl)pyrrolidine-2,3-quinone] | 50.7 µM
